Test results taken from US20230382949A1 (HEPTARES THERAPEUTICS LIMITED, priority 2020, published 2023).
Like-named read-outs stand apart in the source and are kept apart here. Starred links: 1 amine or outer side, 2 acyl side, 3 side chain; linkers in the order of their positions; H or OH if unused. Non-standard residues stand in square brackets, D forms with d. Residues, ends and D or L forms follow the SMILES beside them. *: point of attachment. Ala(piperidin-4-yl) = O=C([C@H](CC1CCN([*:3])CC1)N[*:1])[*:2]; Malonyl(2,2-Me2,histaminyl) = CC(C)(C(=O)NCCc1cnc[nH]1)C(=O)*; dBip = N[C@H](Cc1ccc(-c2ccccc2)cc1)C(=O)O; Oic = O=C(O)[C@@H]1C[C@@H]2CCCC[C@@H]2N1; Phe(4-Br) = N[C@@H](Cc1ccc(Br)cc1)C(=O)O; X2 = COCCOCCOCCOCCOCCNC(=O)C(C)(C)C(=O)*; X1 = CC(C)(C(=O)NCCc1ccccc1)C(=O)*; X3 = CC(C)(C(=O)NCCc1ccccn1)C(=O)*; Ser(ΨH,HPro) = O=C(O)[C@@H]1COCN1; hArg = N=C(N)NCCCC[C@H](N)C(=O)O; hPhe = N[C@@H](CCc1ccccc1)C(=O)O; Pip = O=C(O)[C@@H]1CCCCN1; Aib = CC(C)(N)C(=O)O

Columns and labels:
human Apelin receptor [1] = molecular target: T1, human Apelin receptor (Homo sapiens, UniProt P35414); assay: β-arrestin accumulation assay, functional agonism of human Apelin receptors; type: cell-based
T1 construct: host or cells: CHO-K1 cells
Experimental: β-arrestin assay. […] After 16 h incubation at 37° C. media was removed and cells were incubated at 37° C. for 90 min in serum free media containing increasing concentrations of test agonist. The assay reaction was stopped by adding detection reagent (DiscoveRx) and incubation for 60 min in the dark. Levels of receptor activation were then measured on a PheraStar fluorescence plate reader (BMG LabTech) and EC50 values were determined using Graphpad Prism.
T1 sequence (P32121 whole entry partner, one chain of several): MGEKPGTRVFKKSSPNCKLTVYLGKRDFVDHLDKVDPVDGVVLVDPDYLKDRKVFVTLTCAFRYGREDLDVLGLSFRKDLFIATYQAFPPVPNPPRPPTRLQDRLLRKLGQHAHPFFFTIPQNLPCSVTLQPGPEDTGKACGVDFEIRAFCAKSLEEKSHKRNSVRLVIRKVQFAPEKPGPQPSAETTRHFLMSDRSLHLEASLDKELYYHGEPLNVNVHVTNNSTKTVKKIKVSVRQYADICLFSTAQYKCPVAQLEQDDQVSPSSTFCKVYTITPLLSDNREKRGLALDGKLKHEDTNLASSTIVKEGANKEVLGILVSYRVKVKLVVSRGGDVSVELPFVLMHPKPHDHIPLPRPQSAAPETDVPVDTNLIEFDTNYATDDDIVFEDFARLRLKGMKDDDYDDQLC

human Apelin receptor [2] = molecular target: T2, human Apelin receptor (Homo sapiens, UniProt P35414); assay: cAMP accumulation assay (HTRF), functional agonism of human Apelin receptors; type: cell-based
T2 sequence (P35414 1-380): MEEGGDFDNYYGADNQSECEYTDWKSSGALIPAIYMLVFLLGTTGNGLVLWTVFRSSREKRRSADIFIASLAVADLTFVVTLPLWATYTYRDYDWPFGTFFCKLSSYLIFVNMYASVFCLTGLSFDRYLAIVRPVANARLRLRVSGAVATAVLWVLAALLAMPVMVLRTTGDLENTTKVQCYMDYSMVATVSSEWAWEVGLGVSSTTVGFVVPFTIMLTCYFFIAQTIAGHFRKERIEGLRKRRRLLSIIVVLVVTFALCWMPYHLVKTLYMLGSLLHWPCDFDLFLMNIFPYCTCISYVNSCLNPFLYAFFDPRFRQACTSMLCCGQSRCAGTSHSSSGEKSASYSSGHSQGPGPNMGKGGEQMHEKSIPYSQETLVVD
Source text: cAMP functional assay. cAMP production was quantified using the Homogeneous Time-Resolved Fluorescence (HTRF) cAMP dynamic-2 assay (Cisbio, France).

[3] = CHO, Human Apelin agonist cAMP assay, CHO cells stably expressing the human Apelin receptor, 3 uM forskolin
[4] = pEC50, Human Apelin agonist cAMP assay, CHO cells stably expressing the human Apelin receptor, 3 uM forskolin

Row | Compound | EC50 (human Apelin receptor [1]) | Emax (human Apelin receptor [2]; [3]) | EC50 (human Apelin receptor [2]; [4]) | Human Apelin agonist β-arrestin assay pEC50 (human Apelin receptor [1]; CHO-K1 cells overexpressing human Apelin receptor and β-arrestin, 90 min) | Emax (human Apelin receptor [2]; Human Apelin agonist cAMP assay, CHO cells stably expressing the human Apelin receptor, 3 uM forskolin) | Emax (human Apelin receptor [2]; CHO, read-out: Emax) | EC50 (human Apelin receptor [2]; read-out: pEC50 (converted)) | Human Apelin agonist β-arrestin assay Emax (human Apelin receptor [1]; CHO-K1 cells overexpressing human Apelin receptor and β-arrestin, Emax only reported for active compounds)
1 | CC(C)C[C@H](NC(=O)[C@@H](CCCNC(=N)N)NC(=O)C1C2CC2CN1C(=O)[C@H](CCCCNC(=N)N)NC(=O)[C@H](CCC(N)=O)NC(=O)[C@@H](CCCNC(=N)N)NC(=O)C(C)(C)C(=O)NCCc1c[nH]cn1)C(=O)NC(C)(C)C(=O)N[C@@H](Cc1c[nH]cn1)C(=O)N[C@@H](CC1CCNCC1)C(=O)NCC(=O)N1[C@H](C(=O)N[C@@H](Cc2ccc(Br)cc2)C(=O)N2CCC[C@H]2C(=O)N[C@H](Cc2ccc(-c3ccccc3)cc2)C(=O)O)C[C@@H]2CCCC[C@@H]21 (single isomer, unassigned) [37 Isomer 1] | > 100000 nM | 68.6% | 10 nM |  |  |  |  | 
2 | CC(C)C[C@H](NC(=O)[C@@H](CCCNC(=N)N)NC(=O)C1C2CC2CN1C(=O)[C@H](CCCCNC(=N)N)NC(=O)[C@H](CCC(N)=O)NC(=O)[C@@H](CCCNC(=N)N)NC(=O)C(C)(C)C(=O)NCCc1c[nH]cn1)C(=O)NC(C)(C)C(=O)N[C@@H](Cc1c[nH]cn1)C(=O)N[C@@H](CC1CCNCC1)C(=O)NCC(=O)N1[C@H](C(=O)N[C@@H](Cc2ccc(Br)cc2)C(=O)N2CCC[C@H]2C(=O)N[C@H](Cc2ccc(-c3ccccc3)cc2)C(=O)O)C[C@@H]2CCCC[C@@H]21 (single isomer, unassigned) [37 Isomer 2] |  |  | 5.01 nM | <4 | 68.9 |  |  | 
3 | CC(C)C[C@H](NC(=O)[C@@H](CCCNC(=N)N)NC(=O)[C@@H]1CCCN1C(=O)[C@H](CCCCNC(=N)N)NC(=O)[C@H](CCC(N)=O)NC(=O)[C@@H](CCCNC(=N)N)NC(=O)C(C)(C)C(=O)NCCc1cnc[nH]1)C(=O)N[C@H](C)C(=O)N[C@@H](Cc1c[nH]cn1)C(=O)N[C@@H](CC1CCNCC1)C(=O)NCC(=O)N1[C@H](C(=O)N[C@@H](Cc2ccc(Br)cc2)C(=O)N2CCC[C@H]2C(=O)N[C@H](Cc2ccc(-c3ccccc3)cc2)C(=O)O)C[C@@H]2CCCC[C@@H]21 [Example 1] ({Malonyl(2,2-Me2,histaminyl)}-[dR]Q[hArg]P[dR]L[dA]H[Ala(piperidin-4-yl)]G[Oic][Phe(4-Br)]P[dBip]-OH) | > 10000 nM | 27.2% | 15.8 nM |  |  |  |  | 
4 | CC(C)C[C@H](NC(=O)[C@@H](CCCNC(=N)N)NC(=O)[C@@H]1CCCN1C(=O)[C@H](CCCCNC(=N)N)NC(=O)[C@H](CCC(N)=O)NC(=O)[C@@H](CCCNC(=N)N)NC(=O)C(C)(C)C(=O)NCCc1cnc[nH]1)C(=O)NC(C)(C)C(=O)N[C@@H](Cc1c[nH]cn1)C(=O)N[C@@H](CC1CCNCC1)C(=O)NCC(=O)N1[C@H](C(=O)N[C@@H](Cc2ccc(Br)cc2)C(=O)N2CCC[C@H]2C(=O)N[C@H](Cc2ccc(-c3ccccc3)cc2)C(=O)O)C[C@@H]2CCCC[C@@H]21 [Example 2] ({Malonyl(2,2-Me2,histaminyl)}-[dR]Q[hArg]P[dR]L[Aib]H[Ala(piperidin-4-yl)]G[Oic][Phe(4-Br)]P[dBip]-OH) | > 10000 nM | 50.8% | 20 nM |  |  |  |  | 
5 | CC(C)C[C@H](NC(=O)[C@@H](CCCNC(=N)N)NC(=O)[C@@H]1CCCN1C(=O)[C@H](CCCCNC(=N)N)NC(=O)[C@H](CCC(N)=O)NC(=O)[C@@H](CCCNC(=N)N)NC(=O)C(C)(C)C(=O)NCCc1ccccc1)C(=O)NC(C)(C)C(=O)N[C@@H](Cc1c[nH]cn1)C(=O)N[C@@H](CC1CCNCC1)C(=O)NCC(=O)N1[C@H](C(=O)N[C@@H](Cc2ccc(Br)cc2)C(=O)N2CCC[C@H]2C(=O)N[C@H](Cc2ccc(-c3ccccc3)cc2)C(=O)O)C[C@@H]2CCCC[C@@H]21 [Example 5] (X1-[dR]Q[hArg]P[dR]L[Aib]H[Ala(piperidin-4-yl)]G[Oic][Phe(4-Br)]P[dBip]-OH) | > 10000 nM | 47.2% | 15.8 nM |  |  |  |  | 
6 | CC(C)C[C@H](NC(=O)[C@@H](CCCNC(=N)N)NC(=O)[C@@H]1CCCN1C(=O)[C@H](CCCCNC(=N)N)NC(=O)[C@H](CCC(N)=O)NC(=O)[C@@H](CCCNC(=N)N)NC(=O)C(C)(C)C(=O)NCCc1ccccn1)C(=O)NC(C)(C)C(=O)N[C@@H](Cc1c[nH]cn1)C(=O)N[C@@H](CC1CCNCC1)C(=O)NCC(=O)N1[C@H](C(=O)N[C@@H](Cc2ccc(Br)cc2)C(=O)N2CCC[C@H]2C(=O)N[C@H](Cc2ccc(-c3ccccc3)cc2)C(=O)O)C[C@@H]2CCCC[C@@H]21 [Example 6] (X3-[dR]Q[hArg]P[dR]L[Aib]H[Ala(piperidin-4-yl)]G[Oic][Phe(4-Br)]P[dBip]-OH) | > 10000 nM | 53.9% | 20 nM |  |  |  |  | 
7 | COCCOCCOCCOCCOCCNC(=O)C(C)(C)C(=O)N[C@H](CCCNC(=N)N)C(=O)N[C@@H](CCC(N)=O)C(=O)N[C@@H](CCCCNC(=N)N)C(=O)N1CCC[C@H]1C(=O)N[C@H](CCCNC(=N)N)C(=O)N[C@@H](CC(C)C)C(=O)NC(C)(C)C(=O)N[C@@H](Cc1c[nH]cn1)C(=O)N[C@@H](CC1CCNCC1)C(=O)NCC(=O)N1[C@H](C(=O)N[C@@H](Cc2ccc(Br)cc2)C(=O)N2CCC[C@H]2C(=O)N[C@H](Cc2ccc(-c3ccccc3)cc2)C(=O)O)C[C@@H]2CCCC[C@@H]21 [Example 7] (X2-[dR]Q[hArg]P[dR]L[Aib]H[Ala(piperidin-4-yl)]G[Oic][Phe(4-Br)]P[dBip]-OH) | > 10000 nM |  |  |  |  | 59.2% | 20 nM | 
8 | CC(C)C[C@H](NC(=O)[C@@H](CCCNC(=N)N)NC(=O)[C@@H]1CCCN1C(=O)[C@H](CCCCNC(=N)N)NC(=O)[C@H](CCc1ccccc1)NC(=O)[C@@H](CCCNC(=N)N)NC(=O)C(C)(C)C(=O)NCCc1c[nH]cn1)C(=O)NC(C)(C)C(=O)N[C@@H](Cc1c[nH]cn1)C(=O)N[C@@H](CC1CCNCC1)C(=O)NCC(=O)N1[C@H](C(=O)N[C@@H](Cc2ccc(Br)cc2)C(=O)N2CCC[C@H]2C(=O)N[C@H](Cc2ccc(-c3ccccc3)cc2)C(=O)O)C[C@@H]2CCCC[C@@H]21 [Example 8] ({Malonyl(2,2-Me2,histaminyl)}-[dR][hPhe][hArg]P[dR]L[Aib]H[Ala(piperidin-4-yl)]G[Oic][Phe(4-Br)]P[dBip]-OH) | > 10000 nM | 56.1% | 15.8 nM |  |  |  |  | 
9 | CC(C)C[C@H](NC(=O)[C@@H](CCCNC(=N)N)NC(=O)[C@@H]1CCCN1C(=O)[C@H](CCCNC(=N)N)NC(=O)[C@H](CCC(N)=O)NC(=O)[C@@H](CCCNC(=N)N)NC(=O)C(C)(C)C(=O)NCCc1c[nH]cn1)C(=O)NC(C)(C)C(=O)N[C@@H](Cc1c[nH]cn1)C(=O)N[C@@H](CC1CCNCC1)C(=O)NCC(=O)N1[C@H](C(=O)N[C@@H](Cc2ccc(Br)cc2)C(=O)N2CCC[C@H]2C(=O)N[C@H](Cc2ccc(-c3ccccc3)cc2)C(=O)O)C[C@@H]2CCCC[C@@H]21 [Example 9] ({Malonyl(2,2-Me2,histaminyl)}-[dR]QRP[dR]L[Aib]H[Ala(piperidin-4-yl)]G[Oic][Phe(4-Br)]P[dBip]-OH) | > 10000 nM | 86.9% | 6.31 nM |  |  |  |  | 
10 | CC(C)C[C@H](NC(=O)[C@@H](CCCNC(=N)N)NC(=O)[C@@H]1C[C@@H]2CCCC[C@@H]2N1C(=O)[C@H](CCCCNC(=N)N)NC(=O)[C@H](CCC(N)=O)NC(=O)[C@@H](CCCNC(=N)N)NC(=O)C(C)(C)C(=O)NCCc1c[nH]cn1)C(=O)NC(C)(C)C(=O)N[C@@H](Cc1c[nH]cn1)C(=O)N[C@@H](CC1CCNCC1)C(=O)NCC(=O)N1[C@H](C(=O)N[C@@H](Cc2ccc(Br)cc2)C(=O)N2CCC[C@H]2C(=O)N[C@H](Cc2ccc(-c3ccccc3)cc2)C(=O)O)C[C@@H]2CCCC[C@@H]21 [Example 10] ({Malonyl(2,2-Me2,histaminyl)}-[dR]Q[hArg][Oic][dR]L[Aib]H[Ala(piperidin-4-yl)]G[Oic][Phe(4-Br)]P[dBip]-OH) | > 10000 nM | 52.5% | 20 nM |  |  |  |  | 
11 | CC(C)C[C@H](NC(=O)[C@@H](CCCNC(=N)N)NC(=O)[C@@H]1COCN1C(=O)[C@H](CCCCNC(=N)N)NC(=O)[C@H](CCC(N)=O)NC(=O)[C@@H](CCCNC(=N)N)NC(=O)C(C)(C)C(=O)NCCc1c[nH]cn1)C(=O)NC(C)(C)C(=O)N[C@@H](Cc1c[nH]cn1)C(=O)N[C@@H](CC1CCNCC1)C(=O)NCC(=O)N1[C@H](C(=O)N[C@@H](Cc2ccc(Br)cc2)C(=O)N2CCC[C@H]2C(=O)N[C@H](Cc2ccc(-c3ccccc3)cc2)C(=O)O)C[C@@H]2CCCC[C@@H]21 [Example 11] ({Malonyl(2,2-Me2,histaminyl)}-[dR]Q[hArg][Ser(ΨH,HPro)][dR]L[Aib]H[Ala(piperidin-4-yl)]G[Oic][Phe(4-Br)]P[dBip]-OH) | > 10000 nM | 90.6% | 12.6 nM |  |  |  |  | 
12 | CC(C)C[C@H](NC(=O)[C@@H](CCCNC(=N)N)NC(=O)[C@@H]1CCCCN1C(=O)[C@H](CCCCNC(=N)N)NC(=O)[C@H](CCC(N)=O)NC(=O)[C@@H](CCCNC(=N)N)NC(=O)C(C)(C)C(=O)NCCc1c[nH]cn1)C(=O)NC(C)(C)C(=O)N[C@@H](Cc1c[nH]cn1)C(=O)N[C@@H](CC1CCNCC1)C(=O)NCC(=O)N1[C@H](C(=O)N[C@@H](Cc2ccc(Br)cc2)C(=O)N2CCC[C@H]2C(=O)N[C@H](Cc2ccc(-c3ccccc3)cc2)C(=O)O)C[C@@H]2CCCC[C@@H]21 [Example 12] ({Malonyl(2,2-Me2,histaminyl)}-[dR]Q[hArg][Pip][dR]L[Aib]H[Ala(piperidin-4-yl)]G[Oic][Phe(4-Br)]P[dBip]-OH) | > 10000 nM | 98.9% | 7.94 nM |  |  |  |  | 
13 | Apelin [reference compound] |  |  |  |  |  |  |  | 165.8
